Data on one compound can be found in patent publication US7553853B2, “Solid-state montelukast” (Synthon BV, priority 2003, dated 2009).

A short description of data set [1]: Hygroscopicity as stated in the description. In kind it is physicochemical. The note with it: solid state.
Data set [2] in a line: Hygroscopicity of montelukast acid (water content by Karl Fisher apparatus after exposure). In kind it is physicochemical. The protocol:
Montelukast acid (50 mg) from Example 2 was exposed to air overnight. The water content was then determined to be 0.07 wt % using a Karl Fisher apparatus.
Montelukast acid (50 mg) from Example 2 was stored for 2 days at 40° C., 75% relative humidity. The water content was then determined to be 0.27 wt % using a Karl Fisher apparatus.

Take `CC(C)(O)c1ccccc1CC[C@@H](SCC1(CC(=O)O)CC1)c1cccc(/C=C/c2ccc3ccc(Cl)cc3n2)c1` [Montelukast acid, [R-(E)]-1-[[[1-[3-[2-(7-chloro-2-quinolinyl)ethenyl]phenyl]-3-[2-(1-hydroxy-1-methylethyl)phenyl]propyl]thio]methyl]cyclopropane acetic acid]: in data set [1], the “hygroscopicity in comparison to sodium montelukast” value is listed as “reduced hygroscopicity”. Moreover, the water content in data set [2] (montelukast acid (50 mg) from Example 2, exposed to air overnight) was determined as 0.07 wt %; in data set [2] (montelukast acid (50 mg) from Example 2, stored for 2 days at 40° C., 75% relative humidity) it was 0.27 wt %.
